Data: publication PMC11189555, “Aryl amino acetamides prevent Plasmodium falciparum ring development via targeting the lipid-transfer protein PfSTART1” (Nature Communications, 2024)

Biological target: T1, PfSTART1 (Plasmodium falciparum, UniProt Q8I298)
T1 construct: endogenous in cells; host or cells: P. falciparum mature blood stages (30-42 hpi), soluble lysate
Type: binding
Details: 100 µM W-991 vs DMSO; 7-25% AEF; p = 0.0014
Procedure: The experiment was carried out in three biological replicates. Saponin-liberated mature parasite stages (30-42 hpi) were resuspended in PBS and lysed by 3x flash freeze/thawing using liquid N2, followed by 10 x mechanical sheering with a 29 G needle-syringe, and soluble protein isolation through ultracentrifugation (100,000 g; 20 min, 4 °C). Protein lysate was exposed to the 100 µM of W-991 or the vehicle control (DMSO) for 3 min and subsequently incubated with varying concentration of the solvent mixture ‘AEF’ (50% Acetone, 50% Ethanol, 0.1% Formate) to a final concentration of 7-25% (v/v) with 2% intervals, for 20 min at 37 °C at 800 rpm on a Thermomixer (Eppendorf). Denatured protein was pelleted through centrifugation (4 °C, 18,000 g, 20 min), and the soluble phase was recovered and pulled together in equivolume ratios into two samples; Gradient 1 ‘G1’: 7-15% EAF and Gradient 2 ‘G2’: 17-25% EAF, respectively. […]
Peptide samples were analysed on Orbitrap Eclipse Tribrid mass spectrometer that is interfaced with the Neo Vanquish liquid chromatography system. […] Subsequently, the differential abundance analysis (moderated t-test, based on limma package[81]) of P. falciparum proteins was conducted in the R environment (R version 4.2.0; R Studio Version 2023.12.1 + 402) using precursor normalised MaxLFQ data for proteins detected with ≥2 peptides. […]

T1 sequence (Q8I298 entry or part of it): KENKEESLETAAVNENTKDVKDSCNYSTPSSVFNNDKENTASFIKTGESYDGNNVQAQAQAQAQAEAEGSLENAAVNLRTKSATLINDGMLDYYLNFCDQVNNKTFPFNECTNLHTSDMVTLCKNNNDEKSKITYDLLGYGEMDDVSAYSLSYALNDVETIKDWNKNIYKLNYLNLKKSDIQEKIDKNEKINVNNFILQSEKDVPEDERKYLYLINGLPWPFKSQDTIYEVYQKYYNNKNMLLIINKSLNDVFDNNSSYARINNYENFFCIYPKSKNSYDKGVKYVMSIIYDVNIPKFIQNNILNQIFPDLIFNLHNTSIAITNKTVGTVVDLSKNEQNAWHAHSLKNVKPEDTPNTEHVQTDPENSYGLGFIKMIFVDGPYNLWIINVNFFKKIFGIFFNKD

For CC(C)(Nc1ccc(Cl)c(S(=O)(=O)N2CCOCC2)c1)C(=O)Nc1ccc(F)c(Cl)c1 [W-991], which “soluble protein level in the presence of compound (stabilisation)” value is on record?
The value was “significantly (p < 0.01) increased levels”.
